# Experimental data published in patent publication US9193954B2, “Methods and compositions for mesenchymal stem cell proliferation” (priority 2011, dated 2015).
# Assays:
# [1] = tested on: stem markers Sox2 and Nanog; test: RT-PCR of stem markers Sox2 and Nanog at end of 33 day culture, normalized to GAPDH (Example 1); format: cell-based, human; conditions: end of 33 day time course
# Method: FIG. 2 RNA was harvested from BIO treated hMSCs at day […] and analyzed for expression of stem markers Sox2 and Nanog. Expression was normalized to housekeeping gene GAPDH. Error bars shown are standard error (n=3).
# At the end of the 33 day experimental time course RNA was isolated (Omega E.N.Z.A total RNA kit) from the hMSC specimens (n=3) and reverse transcription (Bio-Rad iSCRIPT cDNA synthesis kit) was performed to yield cDNA. Forward and reverse primers (Table 1.) for the stem markers Sox2 and Nanog as well as the housekeeping gene, GAPDH (Glyceraldehyde 3-phosphate dehydrogenase) were then used to quantify gene expression. Expressions of genes of interest (Sox2 and Nanog) were normalized to control (GAPDH). We observed a dose dependent increase in both Sox2 and Nanog gene expression. Sox2 expression increased ˜30% and ˜50% with 2 μM and 5 μM BIO treatment, while Nanog expression increased >100% with 5 μM BIO treatment (FIG. 2).
# [2] = tested on: PEG-encapsulated hMSCs; test: PEG-encapsulated hMSC proliferation by total cellular DNA concentration (PicoGreen); format: cell-based, human
# Method: (§1) FIG. 7 Schematic representation of 18 day PEG-encapsulated hMSC culture after 24 hr exposure to BIO-containing media (A). Cell DNA concentration was quantified on days 0, 1, 5, 12, and 18 and shown to undergo a dose-dependent, BIO-mediated increase in proliferation (B), as previously shown in two-dimensional cultures. Representative LIVE/DEAD confocal images of PEG-encapsulated BIO-treated hMSC cultures (C).
# A 10 wt % solution of PEGDM was prepared in phosphate buffered saline (PBS) with 2.0 mM acryloyl-PEG-RGDS. The photoinitiator lithium phenyl-2,4,6-trimethylbenzoylphosphinate (LAP) was synthesized using conventional techniques and added at a final concentration of 0.05 wt %. Trypsinized hMSCs were centrifuged to form pellets and counted. The PEG macromer solution was added to the cell pellet, and volumes were adjusted to achieve a final cell concentration of 25 million cells/mL. Using a sterile 1 mL syringe with the tip removed as a mold, 40 μL of PEG/cell solution was added and exposed to long-wavelength 365 nm light (5 mW/cm^2 intensity) for 10 min at room temperature. […]
# Encapsulated hMSC proliferation was assessed using total cellular DNA concentration, assuming constant DNA per cell, using a Quant-iT PicoGreen dsDNA Assay Kit (Invitrogen). […]
# [3] = tested on: PEG-encapsulated hMSCs; test: LIVE/DEAD confocal imaging of PEG-encapsulated BIO-treated hMSC cultures; format: cell-based, human; conditions: no detectable dead cells
# From the text: as §1
# Encapsulated hMSC viability, BIO treatment, and assessment of gene expression was performed as described in Section 2.3 with exception of cell lysate collection. For assessment of gene expression hMSC-PEG constructs were homogenized in lysis buffer and centrifuged to pellet polymerized PEG. The supernatant was then collected for analysis.
# [4] = tested on: active nuclear β-catenin; test: TOPFlash/FOPFlash reporter assay for active nuclear β-catenin in C3H10T1/2; format: cell-based, mouse; conditions: for increase in normalized TOPFlash signal compared to untreated controls: after 24 hr treatment, C3H10T1/2
# From the text: FIG. 3 Schematic representation of 3 hr C3H10T1/2 transfection with TOP/FOPFlash DNA plasmid followed by 24 hr exposure to BIO-containing media and subsequent analysis for active nuclear β-catenin over 5 days (A). Active nuclear β-catenin concentrations (TOPFlash) show a BIO-mediated dose-dependent increase immediately after BIO treatment as compared to control plasmid (FOPFlash) (B). Increased active nuclearβ-catenin concentrations persists for 3 days after BIO-treatment before returning to basal levels (C).
# The β-catenin TOPFlash reporter plasmid and the FOPFlash mutant control (Addgene Plasmid #12456, and Addgene Plasmid #12457 were obtained in the form of DH5alpha bacterial stabs. Bacteria were streaked onto ampicillin-containing agar plates and grown overnight at 37° C. A single colony was selected, grown in 50 ml Luria-Bertani (LB) broth with 100 μg/ml ampicillin (Gibco) to select for ampicillin resistant colonies, and cultured at 37° C. under constant agitation for 24 hrs. Bacteria were centrifuged to form a pellet and plasmid DNA was purified using a Plasmid Midi Kit (Qiagen). Plasmid DNA was digested using EcoRI and PvuI restriction endonucleases (New England Biolabs) and fragments were separated on a 0.8% agarose gel. Molecular weights were verified using a standard DNA ladder (HyperLadder I, BioLine).
# C3H10T1/2 mouse embryonic fibroblasts were seeded in multiple 48-well plates and treated with BIO containing growth media for 24 hrs to analyze the effects of β-catenin activity over time. […]
# Luciferase activity was measured prior to BIO treatment (day 0), as well as on days 1, 2, 3, 4, and 5 after the 24 hr BIO treatment period. […] To each 96-well 25 μl of Luciferase Assay Reagent (Promega, Madison, Wis.) was added and total luminescence was measure immediately using a BioTek Synergy Mx plate-reader. Total luminescence was normalized to cellular DNA concentration using a Quant-iT PicoGreen dsDNA Assay Kit (Invitrogen) to account for well-to-well variability in cell density.
structure (smiles),measurement,setting,value
"O=C1Nc2cc(Br)ccc2/C1=C1/Nc2ccccc2/C1=N\O [BIO, 6-bromoindirubin-3′-oxime]",Sox2 expression increase,[1]; 2 μM BIO,~30%
same,Nanog expression increase,[1]; 5 μM BIO,> 100%
same,Sox2 expression increase,[1]; 5 μM BIO,~50%
same,3D proliferation relative to untreated control,[2]; 5 uM BIO,120%
same,increase in proliferation (normalized DNA concentration) versus 0 μM,"[2]; 5 μM BIO, at both days 12 and 18, PEG hydrogels",20%
same,live cells (LIVE/DEAD imaging),[3],~100%
same,increase in normalized TOPFlash signal compared to untreated controls,[4]; 2 μM BIO,71 fold
same,increase in normalized TOPFlash signal compared to untreated controls,[4]; 5 μM BIO,106 fold
same,"persistence of elevated TOPFlash signaling after BIO was removed, before returning to basal levels","[4]; C3H10T1/2, after 24 hr BIO treatment",three
